# Results from patent US20090142816A1, “GLIOCLADIUM ISOLATE C-13 AND METHODS OF ITS USE FOR PRODUCING VOLATILE COMPOUNDS AND HYDROCARBONS” (priority 2007, published 2009).
# “Also recorded” adds a separate entry of the source.
# Legend:
# Assay in all cases: PDA plate bioassay of artificial VOC mixture / [8]annulene, two day exposure
# Type in all cases: cell-based
# Aspergillus ochraceus = test system: Aspergillus ochraceus
# Method: (§1) An artificial mixture of compounds, as well as [8]annulene, that were positively identified in the atmosphere of the Gliocladium sp., were subjected to PDA plate bioassay tests for a two day exposure period. They were available from Sigma-Aldrich (St. Louis, Mo.) or were prepared via organic synthetic techniques (Strobel et al., Microbiology 147: 2943-2950, 2001). Varying amounts (non-equilibrium conditions) of the mixtures of the VOCs (0.8-30 μl) were placed in a small sterile plastic microcup (4×6 mm) that was firmly fixed in the middle of the test plate, and then test organisms were inoculated around the periphery of the agar surface. The amount of each VOC used was calculated from relative areas (RA's) in Table 2. […] Measurements of fungal growth were made and compared to growth on a control PDA plate having no test compounds. The IC50 and IC100 values were calculated from data plots of inhibition of fungal growth as a function of VOC concentrations (Strobel et al., Microbiology 147: 2943-2950, 2001). The IC values are presented as the amount of VOCs (volume per ml of air space in the Petri plate above the fungal culture). Studies were done in triplicate and the data averaged and standard deviations determined (Strobel et al., Microbiology 147: 2943-2950, 2001). Each test organism, after the two day exposure was tested for its viability by placing it on a fresh plate of PDA.
# (§2) The test fungi were exposed to amounts of the VOC's varying from 0.8 μl to 30 μl (non-equilibrium conditions in a 50 ml air space volume above the fungal culture on the Petri plate) and exposed to them for two days after which growth rates were measured and the IC50's and IC100's calculated.
# (§3) The artificial mixture was prepared based on the ratios of the compounds identified by GC/MS. The IC50's were calculated on the basis of the μl VOCs/ml of the free gas space in the Petri plate above the fungal culture. The IC100's were extrapolated from the curves obtained by plotting fungal inhibition vs. VOC concentration. The IC100's represent the approximate concentration required to give 100% inhibition of fungal growth. Viability was evaluated by transferring the fungal to a regular PDA plate after exposure to the VOC mixtures.
# (§4) The IC50's were calculated on the basis of the μl [8]annulene/ml of the free gas space in the Petri plate above the fungal culture. The IC50's and IC100's were calculated in the same manner as described in Example 1. The IC100's represent the approximate concentration required to give 100% inhibition of fungal growth. Viability was tested by transferring the fungal to a regular PDA plate after exposure to [8]annulene.
# Fusarium oxysporum = test system: Fusarium oxysporum
# Method: as §1, §2, §3, §4
# Geotrichum candidum = test system: Geotrichum candidum
# Method: as §1, §2, §3, §4
# Gliocladium sp. = test system: Gliocladium sp.
# Method: as §1, §2, §3, §4
# Pythium ultimum = test system: Pythium ultimum
# Method: as §1, §2, §3, §4
# Rhizoctonia solani = test system: Rhizoctonia solani
# Method: as §1, §2, §3, §4
# Sclerotinia sclerotiorum = test system: Sclerotinia sclerotiorum
# Method: as §1, §2, §3, §4
# Verticillium dahliae = test system: Verticillium dahliae
# Method: as §1, §2, §3, §4
# [1] = after exposure at the IC100 level, placed on fresh agar plate
# [2] = two day exposure, approximate concentration for 100% inhibition, extrapolated from inhibition curves
# [3] = two day exposure, μl per ml of free gas space in the Petri plate
compound,measurement,setting,value
"C1=CC=CC=CC=C1 [[8]annulene, 1,3,5,7-cyclooctatetraene]",Viability,Aspergillus ochraceus; [1],alive
same,IC100,Aspergillus ochraceus; [2],0.50 μl/ml
same,IC50,Aspergillus ochraceus; [3],0.08 ± 0.01 μl/ml
same,Viability,Fusarium oxysporum; [1],alive
same,IC100,Fusarium oxysporum; [2],0.70 μl/ml
same,IC50,Fusarium oxysporum; [3],0.28 ± 0.03 μl/ml
same,Viability,Geotrichum candidum; [1],alive
same,IC100,Geotrichum candidum; [2],0.44 μl/ml
same,IC50,Geotrichum candidum; [3],0.10 ± 0.02 μl/ml
same,Viability,Gliocladium sp.; [1],alive
same,IC100,Gliocladium sp.; [2],0.60 μl/ml
same,IC50,Gliocladium sp.; [3],0.30 ± 0.01 μl/ml
same,Viability,Pythium ultimum; [1],did not die; also recorded: alive
same,IC100,Pythium ultimum; [2],0.30 μl/ml
same,IC50,Pythium ultimum; [3],0.10 ± 0.04 μl/ml
same,Viability,Rhizoctonia solani; [1],alive
same,IC100,Rhizoctonia solani; [2],0.40 μl/ml
same,IC50,Rhizoctonia solani; [3],0.14 ± 0.08 μl/ml
same,Viability,Sclerotinia sclerotiorum; [1],did not die; also recorded: alive
same,IC100,Sclerotinia sclerotiorum; [2],0.30 μl/ml
same,IC50,Sclerotinia sclerotiorum; [3],0.05 ± 0.01 μl/ml
same,Viability,Verticillium dahliae; [1],alive
same,IC100,Verticillium dahliae; [2],0.30 μl/ml
same,IC50,Verticillium dahliae; [3],0.18 ± 0.00 μl/ml
